# Values of other authors as cited in patent publication US20260263368A1, “DOUBLE-RELEASE THREE-LAYERED BR[…] AND PREPARATION METHOD THEREOF” (TAIZHOU OVERSEAS PHARMACEUTICALS, LTD., priority 2023, published 2026).
# Conditions: background statement
structure (smiles),measurement,value
"CCC[C@@H]1CC(=O)N([C@@H](CC)C(N)=O)C1 [Brivaracetam, (2S)-2-[(4R)-2-oxo-4-propyltetrahydro-1H-pyrrol-1-yl]butanamide]",water solubility,good water solubility
